Test results published in ChEMBL document CHEMBL5291721, “A preclinical secondary pharmacology resource illuminates target-adverse drug reaction associations of marketed drugs” (Nat Commun, 2023).

Legend:
[1] = molecular target: Glutamate receptor ionotropic, NMDA 1 (Rattus norvegicus, UniProt P35439)
[2] = molecular target: 5-hydroxytryptamine receptor 2B (Homo sapiens, UniProt P41595); format: functional, cell-based
[3] = molecular target: Gamma-aminobutyric acid receptor subunit alpha-1 (Rattus norvegicus, UniProt P62813); format: functional
Chain of Gamma-aminobutyric acid receptor subunit alpha-1 (P62813 whole entry): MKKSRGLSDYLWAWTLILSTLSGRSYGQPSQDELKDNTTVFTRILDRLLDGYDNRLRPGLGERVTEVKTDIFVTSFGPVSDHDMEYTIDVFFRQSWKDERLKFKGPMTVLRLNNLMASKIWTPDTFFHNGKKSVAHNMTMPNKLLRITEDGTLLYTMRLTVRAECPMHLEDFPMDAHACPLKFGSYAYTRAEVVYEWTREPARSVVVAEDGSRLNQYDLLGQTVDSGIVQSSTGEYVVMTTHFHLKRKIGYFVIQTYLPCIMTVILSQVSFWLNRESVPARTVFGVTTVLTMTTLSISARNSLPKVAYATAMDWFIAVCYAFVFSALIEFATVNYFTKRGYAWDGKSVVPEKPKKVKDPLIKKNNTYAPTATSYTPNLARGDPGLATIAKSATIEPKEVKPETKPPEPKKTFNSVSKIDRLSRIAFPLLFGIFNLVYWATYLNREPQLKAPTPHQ

[4] = molecular target: T1, Alpha-1A adrenergic receptor (Homo sapiens, UniProt P35348); format: functional, cell-based
T1 sequence (P35348 whole entry): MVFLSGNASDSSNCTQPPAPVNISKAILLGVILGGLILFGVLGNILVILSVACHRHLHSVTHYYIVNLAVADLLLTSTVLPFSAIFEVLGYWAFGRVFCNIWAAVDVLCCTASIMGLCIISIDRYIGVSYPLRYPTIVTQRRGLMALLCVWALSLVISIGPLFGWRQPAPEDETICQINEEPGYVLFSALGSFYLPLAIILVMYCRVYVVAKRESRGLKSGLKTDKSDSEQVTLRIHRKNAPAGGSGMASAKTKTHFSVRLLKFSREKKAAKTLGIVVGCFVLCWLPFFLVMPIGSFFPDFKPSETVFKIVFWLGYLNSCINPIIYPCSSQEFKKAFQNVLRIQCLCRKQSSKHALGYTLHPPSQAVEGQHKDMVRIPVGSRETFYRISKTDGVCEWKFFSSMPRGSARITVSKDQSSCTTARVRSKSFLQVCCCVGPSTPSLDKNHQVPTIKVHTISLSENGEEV

Histamine H3 receptor = Histamine H3 receptor (Homo sapiens, UniProt Q9Y5N1)
Chain of Histamine H3 receptor (Q9Y5N1 whole entry): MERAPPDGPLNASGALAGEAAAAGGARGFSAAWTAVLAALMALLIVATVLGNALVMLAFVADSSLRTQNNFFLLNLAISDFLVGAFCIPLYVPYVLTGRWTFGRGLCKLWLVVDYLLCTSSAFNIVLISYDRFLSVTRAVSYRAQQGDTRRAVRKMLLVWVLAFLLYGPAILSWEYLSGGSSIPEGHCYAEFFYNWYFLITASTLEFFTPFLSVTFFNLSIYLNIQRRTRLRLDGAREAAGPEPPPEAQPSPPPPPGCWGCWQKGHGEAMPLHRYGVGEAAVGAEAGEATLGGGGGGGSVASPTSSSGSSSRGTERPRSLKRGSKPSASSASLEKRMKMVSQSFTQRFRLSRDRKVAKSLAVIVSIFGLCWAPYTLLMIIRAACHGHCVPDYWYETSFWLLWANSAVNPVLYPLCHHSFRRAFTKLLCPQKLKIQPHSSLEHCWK

[5] = molecular target: Kappa-type opioid receptor (Homo sapiens, UniProt P41145)
[6] = molecular target: T2, Alpha-2B adrenergic receptor (Homo sapiens, UniProt P18089)
T2 sequence (P18089 whole entry): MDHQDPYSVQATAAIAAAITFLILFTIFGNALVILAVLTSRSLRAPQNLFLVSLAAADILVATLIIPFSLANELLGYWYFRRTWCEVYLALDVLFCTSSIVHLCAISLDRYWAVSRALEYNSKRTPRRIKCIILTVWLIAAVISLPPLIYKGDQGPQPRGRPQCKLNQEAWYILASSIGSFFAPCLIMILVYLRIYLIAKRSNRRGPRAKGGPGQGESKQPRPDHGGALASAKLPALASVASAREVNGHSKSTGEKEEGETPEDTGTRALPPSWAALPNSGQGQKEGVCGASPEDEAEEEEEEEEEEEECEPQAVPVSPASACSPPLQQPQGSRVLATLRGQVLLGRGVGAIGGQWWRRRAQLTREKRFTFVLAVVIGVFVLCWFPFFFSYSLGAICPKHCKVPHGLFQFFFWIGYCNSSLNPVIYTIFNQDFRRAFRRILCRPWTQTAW

[7] = molecular target: T3, Alpha-2C adrenergic receptor (Homo sapiens, UniProt P18825); format: functional
T3 sequence (P18825 whole entry): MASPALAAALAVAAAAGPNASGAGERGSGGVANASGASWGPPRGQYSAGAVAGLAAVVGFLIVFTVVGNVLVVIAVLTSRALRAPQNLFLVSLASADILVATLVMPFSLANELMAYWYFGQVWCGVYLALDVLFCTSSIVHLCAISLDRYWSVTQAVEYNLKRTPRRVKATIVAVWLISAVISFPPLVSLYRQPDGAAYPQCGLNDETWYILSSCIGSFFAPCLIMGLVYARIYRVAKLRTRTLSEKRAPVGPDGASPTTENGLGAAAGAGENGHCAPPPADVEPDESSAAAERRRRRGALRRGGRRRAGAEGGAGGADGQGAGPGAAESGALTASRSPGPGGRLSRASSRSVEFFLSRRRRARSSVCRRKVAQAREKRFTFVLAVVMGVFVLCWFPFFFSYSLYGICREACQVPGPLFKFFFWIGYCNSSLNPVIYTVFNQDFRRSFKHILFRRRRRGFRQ

Cannabinoid receptor 1 = Cannabinoid receptor 1 (Homo sapiens, UniProt P21554); format: functional, cell-based
Chain of Cannabinoid receptor 1 (P21554 whole entry): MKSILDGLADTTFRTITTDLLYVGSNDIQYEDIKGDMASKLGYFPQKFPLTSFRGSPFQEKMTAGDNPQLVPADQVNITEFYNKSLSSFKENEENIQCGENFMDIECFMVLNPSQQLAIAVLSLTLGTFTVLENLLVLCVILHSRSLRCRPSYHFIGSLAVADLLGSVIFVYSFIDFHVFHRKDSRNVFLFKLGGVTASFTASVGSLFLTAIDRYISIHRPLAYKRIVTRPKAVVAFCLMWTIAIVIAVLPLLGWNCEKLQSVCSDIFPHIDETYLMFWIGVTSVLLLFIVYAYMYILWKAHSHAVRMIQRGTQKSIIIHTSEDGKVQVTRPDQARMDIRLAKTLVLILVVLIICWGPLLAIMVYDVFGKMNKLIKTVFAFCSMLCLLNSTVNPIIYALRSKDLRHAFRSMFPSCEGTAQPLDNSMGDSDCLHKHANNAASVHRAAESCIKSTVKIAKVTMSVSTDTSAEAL

Estrogen receptor = molecular target: T4, Estrogen receptor (Homo sapiens, UniProt P03372)
T4 sequence (P03372 whole entry): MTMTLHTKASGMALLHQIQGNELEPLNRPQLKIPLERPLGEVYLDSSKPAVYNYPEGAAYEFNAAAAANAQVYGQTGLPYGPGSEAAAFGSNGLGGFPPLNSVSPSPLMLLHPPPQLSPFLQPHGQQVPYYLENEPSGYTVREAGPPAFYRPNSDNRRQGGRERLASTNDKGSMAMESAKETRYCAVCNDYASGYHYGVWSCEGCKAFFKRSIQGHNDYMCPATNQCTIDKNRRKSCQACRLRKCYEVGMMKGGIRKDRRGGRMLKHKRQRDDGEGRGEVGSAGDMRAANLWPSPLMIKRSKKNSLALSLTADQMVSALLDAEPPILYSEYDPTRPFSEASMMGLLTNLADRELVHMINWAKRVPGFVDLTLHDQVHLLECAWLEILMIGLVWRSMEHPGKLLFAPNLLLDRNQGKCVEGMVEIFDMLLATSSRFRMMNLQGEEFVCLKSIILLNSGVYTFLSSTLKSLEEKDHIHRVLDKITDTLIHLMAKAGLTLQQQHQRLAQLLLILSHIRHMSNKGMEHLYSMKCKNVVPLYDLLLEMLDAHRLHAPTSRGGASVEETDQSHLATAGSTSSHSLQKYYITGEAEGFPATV

Thromboxane A2 receptor = molecular target: T5, Thromboxane A2 receptor (Homo sapiens, UniProt P21731); format: functional, cell-based
T5 sequence (P21731 whole entry): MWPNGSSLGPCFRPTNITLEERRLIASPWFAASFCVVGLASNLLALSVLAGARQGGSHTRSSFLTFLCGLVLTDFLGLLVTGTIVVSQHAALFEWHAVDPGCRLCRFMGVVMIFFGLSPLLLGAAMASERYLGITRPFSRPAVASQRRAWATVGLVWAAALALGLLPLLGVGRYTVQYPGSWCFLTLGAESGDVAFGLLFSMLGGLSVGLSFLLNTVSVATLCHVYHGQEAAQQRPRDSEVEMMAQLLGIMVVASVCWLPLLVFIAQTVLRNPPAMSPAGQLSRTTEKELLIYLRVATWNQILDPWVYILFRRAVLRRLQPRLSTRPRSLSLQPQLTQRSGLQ

[8] = molecular target: cGMP-inhibited 3',5'-cyclic phosphodiesterase 3A (Homo sapiens, UniProt Q14432); format: functional
Chain of cGMP-inhibited 3',5'-cyclic phosphodiesterase 3A (Q14432 whole entry): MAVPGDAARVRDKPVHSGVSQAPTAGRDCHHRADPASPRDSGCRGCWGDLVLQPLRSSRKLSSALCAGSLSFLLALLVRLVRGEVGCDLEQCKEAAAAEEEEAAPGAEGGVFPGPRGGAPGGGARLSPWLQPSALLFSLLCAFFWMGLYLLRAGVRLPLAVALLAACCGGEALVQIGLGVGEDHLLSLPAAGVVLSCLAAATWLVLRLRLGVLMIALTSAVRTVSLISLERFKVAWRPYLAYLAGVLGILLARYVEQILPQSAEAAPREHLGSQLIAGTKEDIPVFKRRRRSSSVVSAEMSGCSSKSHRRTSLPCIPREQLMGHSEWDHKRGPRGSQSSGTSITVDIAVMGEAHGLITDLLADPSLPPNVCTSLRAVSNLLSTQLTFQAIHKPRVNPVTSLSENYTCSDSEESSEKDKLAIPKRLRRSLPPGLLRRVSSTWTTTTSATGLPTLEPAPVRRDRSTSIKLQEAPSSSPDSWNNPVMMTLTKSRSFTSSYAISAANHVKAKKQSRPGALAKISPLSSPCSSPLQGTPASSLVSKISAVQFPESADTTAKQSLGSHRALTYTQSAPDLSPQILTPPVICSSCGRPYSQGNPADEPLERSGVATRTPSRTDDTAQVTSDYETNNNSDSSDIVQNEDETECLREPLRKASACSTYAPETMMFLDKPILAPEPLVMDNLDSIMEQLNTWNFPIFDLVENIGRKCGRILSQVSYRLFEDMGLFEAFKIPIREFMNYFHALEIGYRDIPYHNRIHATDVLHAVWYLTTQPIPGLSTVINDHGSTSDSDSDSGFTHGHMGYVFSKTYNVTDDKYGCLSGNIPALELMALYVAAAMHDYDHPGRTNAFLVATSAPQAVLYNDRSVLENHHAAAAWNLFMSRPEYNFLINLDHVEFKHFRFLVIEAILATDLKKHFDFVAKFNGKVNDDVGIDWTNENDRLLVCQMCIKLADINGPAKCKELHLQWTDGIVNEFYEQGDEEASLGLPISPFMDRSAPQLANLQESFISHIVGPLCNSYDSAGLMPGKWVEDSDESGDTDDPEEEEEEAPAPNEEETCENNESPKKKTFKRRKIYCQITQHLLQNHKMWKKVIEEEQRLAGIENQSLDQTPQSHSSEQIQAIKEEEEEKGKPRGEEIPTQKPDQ

[9] = molecular target: Gamma-aminobutyric acid receptor subunit alpha-1/alpha-2/beta-2/gamma-2 (Homo sapiens, UniProt P14867+P18507+P47869+P47870); format: protein-complex assay
Chain of Gamma-aminobutyric acid receptor subunit alpha-1/alpha-2/beta-2/gamma-2 (P14867 whole entry): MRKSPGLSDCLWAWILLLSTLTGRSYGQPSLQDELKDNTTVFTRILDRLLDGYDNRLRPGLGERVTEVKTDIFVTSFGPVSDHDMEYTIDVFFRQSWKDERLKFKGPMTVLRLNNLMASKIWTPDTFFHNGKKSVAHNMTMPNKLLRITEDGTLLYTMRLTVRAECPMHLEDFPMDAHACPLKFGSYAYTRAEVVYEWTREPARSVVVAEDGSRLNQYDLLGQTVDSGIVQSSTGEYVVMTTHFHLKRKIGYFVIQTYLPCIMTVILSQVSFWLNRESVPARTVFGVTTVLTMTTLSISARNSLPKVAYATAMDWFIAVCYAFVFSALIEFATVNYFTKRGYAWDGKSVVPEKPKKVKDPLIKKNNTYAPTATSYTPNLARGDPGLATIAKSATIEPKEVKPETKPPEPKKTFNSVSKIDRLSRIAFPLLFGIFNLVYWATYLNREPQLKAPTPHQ
Chain of Gamma-aminobutyric acid receptor subunit alpha-1/alpha-2/beta-2/gamma-2 (P47870 whole entry): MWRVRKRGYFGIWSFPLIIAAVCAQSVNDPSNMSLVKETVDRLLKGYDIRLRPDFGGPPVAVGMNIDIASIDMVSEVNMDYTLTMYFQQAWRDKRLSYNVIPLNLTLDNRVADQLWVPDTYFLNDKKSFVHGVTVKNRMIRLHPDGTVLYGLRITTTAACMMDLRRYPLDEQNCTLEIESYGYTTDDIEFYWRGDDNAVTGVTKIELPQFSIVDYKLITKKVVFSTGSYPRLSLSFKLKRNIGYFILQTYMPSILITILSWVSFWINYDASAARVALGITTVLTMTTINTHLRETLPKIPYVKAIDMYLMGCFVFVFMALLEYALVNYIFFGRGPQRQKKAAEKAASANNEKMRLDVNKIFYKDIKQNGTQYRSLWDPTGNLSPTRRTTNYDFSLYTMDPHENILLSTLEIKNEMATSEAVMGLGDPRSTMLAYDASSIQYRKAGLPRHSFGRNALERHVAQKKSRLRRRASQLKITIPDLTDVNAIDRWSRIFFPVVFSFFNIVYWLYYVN
Chain of Gamma-aminobutyric acid receptor subunit alpha-1/alpha-2/beta-2/gamma-2 (P18507 whole entry): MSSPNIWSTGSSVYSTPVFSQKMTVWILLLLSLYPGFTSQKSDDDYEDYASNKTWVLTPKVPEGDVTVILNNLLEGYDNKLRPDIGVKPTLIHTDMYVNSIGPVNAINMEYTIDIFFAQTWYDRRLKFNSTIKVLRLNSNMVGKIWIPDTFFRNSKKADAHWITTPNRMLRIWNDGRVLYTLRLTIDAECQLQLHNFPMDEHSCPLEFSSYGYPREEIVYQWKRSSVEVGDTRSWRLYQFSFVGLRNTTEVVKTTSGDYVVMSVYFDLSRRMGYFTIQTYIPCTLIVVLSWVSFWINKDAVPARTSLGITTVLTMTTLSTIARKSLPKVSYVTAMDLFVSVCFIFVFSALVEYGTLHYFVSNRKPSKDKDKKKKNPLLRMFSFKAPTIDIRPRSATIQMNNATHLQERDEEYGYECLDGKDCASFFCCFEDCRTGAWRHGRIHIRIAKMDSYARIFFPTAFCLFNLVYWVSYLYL
Chain of Gamma-aminobutyric acid receptor subunit alpha-1/alpha-2/beta-2/gamma-2 (P47869 whole entry): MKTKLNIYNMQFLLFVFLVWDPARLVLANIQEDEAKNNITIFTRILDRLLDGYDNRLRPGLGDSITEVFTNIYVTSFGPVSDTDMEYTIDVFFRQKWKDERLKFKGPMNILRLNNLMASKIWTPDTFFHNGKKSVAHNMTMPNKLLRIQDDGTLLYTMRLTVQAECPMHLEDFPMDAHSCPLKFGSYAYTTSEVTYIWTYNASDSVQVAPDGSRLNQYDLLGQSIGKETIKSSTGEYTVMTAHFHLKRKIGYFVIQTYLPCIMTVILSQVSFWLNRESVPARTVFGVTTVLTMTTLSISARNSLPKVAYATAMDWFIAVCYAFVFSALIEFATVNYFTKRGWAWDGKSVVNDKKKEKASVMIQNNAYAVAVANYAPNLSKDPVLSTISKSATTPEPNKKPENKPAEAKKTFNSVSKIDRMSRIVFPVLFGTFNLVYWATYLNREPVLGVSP

Measured: AC50
Note: assay procedure not described here.

Chain of 5-hydroxytryptamine receptor 2B (P41595 whole entry): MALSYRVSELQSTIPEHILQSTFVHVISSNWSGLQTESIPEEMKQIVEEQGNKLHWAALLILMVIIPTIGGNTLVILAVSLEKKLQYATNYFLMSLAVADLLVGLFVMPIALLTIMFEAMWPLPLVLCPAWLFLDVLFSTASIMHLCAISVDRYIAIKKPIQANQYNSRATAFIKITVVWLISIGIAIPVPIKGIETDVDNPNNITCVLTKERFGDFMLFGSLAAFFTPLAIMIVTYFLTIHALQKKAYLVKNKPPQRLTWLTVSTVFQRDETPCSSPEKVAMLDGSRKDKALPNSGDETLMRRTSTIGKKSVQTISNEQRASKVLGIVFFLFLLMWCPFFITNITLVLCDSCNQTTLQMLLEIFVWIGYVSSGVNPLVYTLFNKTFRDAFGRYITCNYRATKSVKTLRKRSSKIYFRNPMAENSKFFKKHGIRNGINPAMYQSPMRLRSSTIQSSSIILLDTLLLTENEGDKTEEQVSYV

CCN(CC)C(=O)C1(c2ccccc2)CC1CN (stereo not drawn)
not listed: Estrogen receptor | Thromboxane A2 receptor | [8] | [9]
> 30 µM: all other assays above

CN(C)C(=O)Oc1cccc([N+](C)(C)C)c1 [NEOSTIGMINE]
> 30 µM: Estrogen receptor | Thromboxane A2 receptor | [8] | [9]
